Key:
Thyrotropin receptor [1] = molecular target: T1, Thyrotropin receptor (Homo sapiens, UniProt P16473); experiment: Agonist activity at TSHR (unknown origin) transiently transfected HEK-EM293 cells assessed as cAMP level after 1 hr by ELISA; assay type: functional, cell-based
[2] = Half life in acidic aqueous conditions at pH 2; assay type: physicochemical; conditions: acidic aqueous solution
Thyrotropin receptor [3] = molecular target: T1, Thyrotropin receptor; experiment: Agonist activity at TSHR (unknown origin)
[4] = molecular target: Lutropin-choriogonadotropic hormone receptor (Homo sapiens, UniProt P22888); experiment: Agonist activity at LHCGR (unknown origin)
Sequence of Lutropin-choriogonadotropic hormone receptor (P22888 whole entry): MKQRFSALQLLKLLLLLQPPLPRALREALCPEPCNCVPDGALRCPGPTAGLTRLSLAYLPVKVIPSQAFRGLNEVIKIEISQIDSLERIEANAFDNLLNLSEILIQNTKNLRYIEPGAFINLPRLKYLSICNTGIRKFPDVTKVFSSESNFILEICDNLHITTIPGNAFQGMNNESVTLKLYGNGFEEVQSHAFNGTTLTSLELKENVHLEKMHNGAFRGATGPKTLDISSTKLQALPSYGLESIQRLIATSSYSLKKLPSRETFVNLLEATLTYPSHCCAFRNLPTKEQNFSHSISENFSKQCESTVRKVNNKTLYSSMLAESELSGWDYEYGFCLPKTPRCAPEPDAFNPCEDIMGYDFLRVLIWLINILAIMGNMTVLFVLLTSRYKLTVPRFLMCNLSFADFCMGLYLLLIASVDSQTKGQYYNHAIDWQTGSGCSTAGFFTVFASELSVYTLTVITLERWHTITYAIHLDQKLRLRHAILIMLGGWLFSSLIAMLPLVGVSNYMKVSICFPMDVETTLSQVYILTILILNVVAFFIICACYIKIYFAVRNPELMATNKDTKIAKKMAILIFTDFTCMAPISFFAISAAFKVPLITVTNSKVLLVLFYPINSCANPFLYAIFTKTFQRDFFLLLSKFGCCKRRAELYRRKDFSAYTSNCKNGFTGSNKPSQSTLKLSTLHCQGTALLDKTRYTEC

T1 sequence (P16473 whole entry): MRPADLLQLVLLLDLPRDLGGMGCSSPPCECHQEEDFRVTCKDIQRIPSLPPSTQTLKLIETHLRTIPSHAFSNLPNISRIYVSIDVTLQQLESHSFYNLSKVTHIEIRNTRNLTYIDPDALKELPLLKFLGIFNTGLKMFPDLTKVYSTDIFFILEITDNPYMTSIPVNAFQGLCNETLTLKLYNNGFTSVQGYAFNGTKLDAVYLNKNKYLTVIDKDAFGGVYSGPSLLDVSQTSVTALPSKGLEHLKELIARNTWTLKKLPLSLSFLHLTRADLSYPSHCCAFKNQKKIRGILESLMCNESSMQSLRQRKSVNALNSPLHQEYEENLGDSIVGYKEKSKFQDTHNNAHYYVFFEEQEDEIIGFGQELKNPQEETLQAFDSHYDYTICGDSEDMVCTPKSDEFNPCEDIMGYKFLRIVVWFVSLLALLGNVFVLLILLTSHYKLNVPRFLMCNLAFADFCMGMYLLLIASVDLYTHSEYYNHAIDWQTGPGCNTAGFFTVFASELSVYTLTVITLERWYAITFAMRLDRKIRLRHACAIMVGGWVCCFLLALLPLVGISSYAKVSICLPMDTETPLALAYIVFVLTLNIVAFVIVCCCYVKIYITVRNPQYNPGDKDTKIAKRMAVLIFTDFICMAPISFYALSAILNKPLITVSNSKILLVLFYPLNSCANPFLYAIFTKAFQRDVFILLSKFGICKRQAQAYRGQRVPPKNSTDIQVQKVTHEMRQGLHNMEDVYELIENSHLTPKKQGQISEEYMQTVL

Row | EC50 (Thyrotropin receptor [1]) | SMILES | other results
1 | 1.86 µM | CC(=O)Nc1ccc(OCc2cccc(C3Nc4ccccc4C(=O)N3Cc3ccccc3)c2)cc1 (configuration not stated) | 
2 | 0.08 µM | COc1ccc(C2Nc3ccccc3C(=O)N2Cc2ccccc2)cc1CSc1ccc(NC(C)=O)cc1 (configuration not stated) | 
3 | 0.28 µM | COc1ccc(C2Nc3cccc(F)c3C(=O)N2Cc2ccccc2)cc1COc1ccc(NC(C)=O)cc1 (configuration not stated) | 
4 | 0.018 µM | COc1ccc(C2Nc3cccc(O)c3C(=O)N2Cc2ccccc2)cc1CSc1ccc(NC(C)=O)cc1 (configuration not stated) | 
5 | 0.33 µM | COc1ccc(C2Nc3ccc(O)cc3C(=O)N2Cc2ccccc2)cc1COc1ccc(NC(C)=O)cc1 (configuration not stated) | 
6 | 0.43 µM | COc1ccc(C2Nc3ccccc3C(=O)N2CCc2ccccc2)cc1COc1ccc(NC(C)=O)cc1 (configuration not stated) | 
7 | 0.83 µM | CCCCN1C(=O)c2ccccc2NC1c1ccc(OC)c(COc2ccc(NC(C)=O)cc2)c1 (configuration not stated) | 
8 | 4.48 µM | COc1ccc(C2Nc3cccc(OC)c3C(=O)N2Cc2ccccc2)cc1COc1ccc(NC(C)=O)cc1 (configuration not stated) | 
9 | 0.55 µM | COc1ccc(-c2nc3cccc(O)c3c(=O)n2Cc2ccccc2)cc1COc1ccc(NC(C)=O)cc1 | 
10 | 2.16 µM | COc1ccc(OCc2cc(C3Nc4ccccc4C(=O)N3Cc3ccccc3)ccc2OC)cc1 (configuration not stated) | 
11 | 0.96 µM | COc1ccc(-c2nc3ccccc3c(=O)n2Cc2ccccc2)cc1COc1ccc(NC(C)=O)cc1 | 
12 | 2.57 µM | COc1ccc(C2Nc3ccccc3C(=O)N2Cc2ccccc2)cc1COc1ccccc1 (configuration not stated) | 
13 | 0.93 µM | COc1ccc(-c2nc3ccccc3c(=O)n2Cc2ccco2)cc1COc1ccc(NC(C)=O)cc1 | 
14 | 1.16 µM | COc1ccc(C2Nc3ccccc3C(=O)N2Cc2ccco2)cc1COc1ccc(NC(C)=O)cc1 (configuration not stated) | 
15 | 0.09 µM | COc1ccc(C2Nc3cccc(O)c3C(=O)N2Cc2ccccc2)cc1COc1ccc(NC(C)=O)cc1 (configuration not stated) | half-life [2]: 3 h
16 | 5.09 µM | COc1ccc(C2Nc3ccccc3C(=O)N2c2ccccc2)cc1COc1ccc(NC(C)=O)cc1 (configuration not stated) | 
17 | 4.34 µM | COc1ccc(C2Nc3ccccc3C(=O)N2Cc2ccccc2)cc1COc1cccc(NC(C)=O)c1 (configuration not stated) | 
18 |  | COc1cccc(-c2nc(SC)nc3sc(C(=O)NC(C)(C)C)c(N)c23)c1 | EC50 (Thyrotropin receptor [3]): 7.7 µM; EC50 [4]: 0.22 µM
19 | 3.98 µM | COc1ccc(C2Nc3ccccc3C(=O)N2Cc2ccncc2)cc1COc1ccc(NC(C)=O)cc1 (configuration not stated) | 

Row | SMILES | EC50 (Thyrotropin receptor [1]) | other results
20 | COc1ccc(C2Nc3ccccc3C(=O)N2Cc2ccccc2)cc1COc1ccc(NC(C)=O)cc1 (configuration not stated) | 0.29 µM | 
